From patent publication US7833795B2, “Assessment of cardiovascular risk using isoprostane biomarkers and COX-2 selective inhibitors” (The Trustees of the University of Pennsylvania, priority 2004, dated 2010)
Like-named read-outs stand apart in the source and are kept apart here.

Assays:
eicosanoid biosynthesis = test: Urinary eicosanoid analyses in mice; assay type: in vivo, mouse
Protocol: Mice: In all cases, transgenic mice deficient in the indicated gene were compared with appropriate strain-, age-, and sex-matched control animals. The investigator was unaware of the genotype throughout the experiment. All procedures were approved and animal husbandry was overseen by the Institutional Animal Care and Usage Committee of the University of Pennsylvania.
Eicosanoid analyses: Urinary 2,3-dinor TxB2 and 2,3-dinor 6-keto PGF1α were measured in twenty four hour urines collected in metabolic cages. After extraction and purification by thin layer chromatography, they were analyzed by gas chromatography/mass spectrometry, as previously described (Egan et al., 2005, Circulation 111:334). Urinary PGE-M was measured by LC/MS/MS as follows: First, 10 ng of hexadeuterated PGE-M (9,15-dioxo-11α-hydroxy-2,3,4,5-tetranor-prostan-1,20-dioic-17,17,18,18,19,19-d6 acid; Cayman Chemical Co., Ann Arbor, Mich.) was added to 0.1 ml of mouse urine. Next, 50 μL of methoxyamine HCl, 1 g/L, was added and the sample was mixed and allowed to stand at room temperature for 15 minutes. The sample was then diluted to 1.0 ml with water and extracted on a Strata™-X solid phase extraction (SPE) cartridge (Phenomenex Inc., Torrance, Calif.). The SPE was eluted with 1.0 mL of 5% acetonitrile in ethyl acetate, dried, dissolved in 200 μL 10% acetonitrile in water, and injected for LC/MS/MS analysis. Transitions monitored were m/z 385→336 for the endogenous PGE-M and 391→342 for the internal standard.

mice [1] = conditions: mouse, in vivo
Protocol: Briefly, mice (12→16 weeks) were anesthetized with sodium pentobarbital (80 mg/kg, intraperitoneally). Following a midline cervical incision, the left common carotid artery was isolated and a Doppler flow probe (Model 0.5 VB, Transonic Systems Co., Ithaca, N.Y.) was applied. The probe was connected to a flowmeter (Transonic Model T105) and interpreted with Powerlab® (AD Instruments, Colorado Springs, Colo.), a computerized data acquisition program. Rose Bengal (Fisher Scientific, Fair Lawn, N.J.) was diluted to phosphate-buffered saline and then injected into the jugular vein in a volume of 0.12 ml at a concentration of 50 mg/kg. Immediately prior to injection, a 1.5-mW green light laser (540 nm) (Melles Griot, Carlsbad, Calif.) was applied to the desired site of injury from a distance of 5 cm carotid artery; blood flow was monitored for 120 minutes or until stable occlusion occurred, after which the mice still showing blood flow were assigned a value of 120 minutes. Stable occlusion was defined as a blood flow of 0 ml/min for 3 minutes.

mice [2] = test: Tail cuff blood pressure measurement; assay type: in vivo, mouse; conditions: celecoxib treatment, regular chow diet
Protocol: (i) Tail Cuff measurement: Resting systolic blood was measured in conscious mice (3-4 months old) using a computerized noninvasive tail-cuff system (Visitech Systems, Apex, N.C.). […] Mice were adapted to the system for 14 days; measurements of sessions 25 minutes in length were done once each day between 15:00 and 18:00. After that, blood pressure was recorded daily for 3 consecutive days in the same way. Data were collected and analyzed using updated BP 2000 software (http://www(dot)visitechsystems(dot)com/).

[3] = system: mouse aortic smooth muscle cells (MASMC); test: H2O2-induced 8,12-iso-iPF2α-VI generation in MASMC; assay type: cell-based
Protocol: (§1) Mouse aortic smooth muscle cells (MASMCs): Primary aortic smooth muscle cells were prepared. […] Cells were cultured in Dulbecco's Modified Eagles medium (DMEM)/Ham's F12 (50/50) (Gibco BRL, Grand Island, N.Y.; with 15 mM HEPES and 2 mM glutamine) supplemented with 20% fetal bovine serum. Cells were routinely passaged using 0.05% trypsin/0.53 mM EDTA, seeded onto six well plates and used at 80-90% confluence, between passages five to nine.
Cicaprost (100 nM, Schering A G, Berlin, Germany by agreement) was added to MASMC medium just prior to addition of H2O2.
Short term treatment with E2: Cells were washed twice rinsing with RPMI serum free medium and then pre-incubated in 1 ml RPMI serum free medium for 1 hour. […] .
The 8,12-iso-iPF2α-VI was analyzed in 1 ml conditioned medium, adjusted to pH 3, using the same method described for urine samples.

heme oxygenase 1 (HO 1) = test: Heme oxygenase 1 Western blotting in MASMC; assay type: cell-based, mouse; conditions: 100 nM cicaprost, 8 hours, IP-dependent
Protocol: as §1
Heme oxygenase 1 (HO 1) Western Blotting: A polyclonal rabbit anti-heme oxygenase 1 (HO 1, ˜32 kDa) was purchased from Stressgen Biotechnologies, Victoria, BC, Canada. MASMCs were treated with 100 nM cicaprost for 8 hours in RPMI vehicle at 37° C. Control cells were treated with vehicle for the same time period. […] Protein isolated from aortae of high fat fed mice was quantitated by the BioRad DC assay for Western Blotting.

IP [4] = molecular target: T1, IP (Mus musculus, UniProt P43252); test: Direct measurement of blood pressure after cicaprost; assay type: in vivo; conditions: cicaprost 1 μg/kg iv
T1 construct: from tissue; host or cells: live anesthetized mice (WT, IP+/- and IP-/- littermates, C57BL/6 background); vasculature
T1 sequence (P43252 1-412 limits assumed): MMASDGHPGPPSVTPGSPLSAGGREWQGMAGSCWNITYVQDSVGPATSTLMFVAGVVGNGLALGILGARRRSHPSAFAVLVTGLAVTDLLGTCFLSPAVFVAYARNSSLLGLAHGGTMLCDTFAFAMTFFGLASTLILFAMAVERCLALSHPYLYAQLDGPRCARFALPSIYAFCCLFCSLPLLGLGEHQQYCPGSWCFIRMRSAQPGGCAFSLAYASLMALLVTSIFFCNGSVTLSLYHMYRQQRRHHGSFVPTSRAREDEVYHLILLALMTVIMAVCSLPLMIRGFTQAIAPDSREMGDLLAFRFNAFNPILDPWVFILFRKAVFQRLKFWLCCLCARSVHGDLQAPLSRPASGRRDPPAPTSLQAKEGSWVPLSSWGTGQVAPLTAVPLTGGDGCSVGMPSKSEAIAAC
Description: (§2) IPKO and mPGES-1 KO mice: IPKO mice were backcrossed into a C57BL/6 genetic background (Cheng et al., 2002, Science 296: 539). IP^−/−, IP^+/−, and WT littermates were identified in litters generated by the intercross of IP^+/− animals by polymerase chain reaction analysis (PCR) of genomic DNA isolated from tail biopsy samples. Southern blot analysis confirmed the IP gene copy number. mPGES-1 KO mice were kindly provided by Pfizer Inc (New York, N.Y.). They were generated and maintained on the DBA/1 lacJ genetic background (Trebino et al., 2003, Proc. Natl. Acad. Sci. U.S.A. 100: 9044). Heterozygous animals were intercrossed, and the litters were screened by PCR analysis to identify both mPGES-1 KO and wild-type controls. Biochemical and functional analyses in each case were performed on mutant mice and WT littermate controls.
(§3) (iii) Direct measurement of blood pressure: Mice were anesthetized (ketamine 100 mg/kg, acepromazine 5 mg/kg) and placed on a temperature-controlled panel. The right internal jugular vein and left carotid artery were cannulated with PE-10 tubing. The arterial catheter was connected to a Capto SP844 pressure transducer (Capto, Horten, Norway), and blood pressure (BP) was monitored continuously with a Powerlab/8SP system (AD Instruments Inc.), as previously described (Hui et al., 2004, Circulation 110:3360; Rocca et al., 2000, Nat. Med. 6:219). Blood pressure and heart rate were continuously monitored for 20-40 minutes until stable values were obtained. After the equilibration period and the baseline BP was recorded, mice were injected via the right internal jugular vein with cicaprost (1 ug/kg in 4 mL/kg saline) as a bolus, and the same volume of saline was injected before cicaprost administration to exclude volume-mediated BP changes. The BP was continuously recorded until it returned to pretreatment baseline.

IP [5] = test: as above; assay type: in vivo, mouse; conditions: cicaprost 1 μg/kg iv, IP−/−
Description: as §2, §3

IP [6] = test: Whole blood platelet aggregation assay; conditions: 10 nM cicaprost, collagen 2 μg/ml ex vivo
Male C57BL/6J mice [7] = system: Male C57BL/6J mice
Protocol: (§4) Animals: All animal studies were performed according to protocols approved by the Institutional Committee for Use and Care of Laboratory Animals. Male C57BL/6J mice, aged four to six weeks were used for the flow reduction models. The parental background strain of the male, four to six week old donor mice in the transplant studies was also C57BL/6J (H2b). The background of the recipient mice was C3H(H2k) (Taconic Farms Inc, Germantown, N.Y.).
Urine was collected over a 24 hour period in metabolic cages (Nalgene Labware, Deepwater, N.J.) with vehicle or nimesulide allowed ad libitum. Urinary levels of prostanoid metabolites were measured by stable isotope dilution methods as previously described. […] A urine aliquot (0.1 ml) was used for measurement of creatinine by an automated colorimetric assay (Sigma-Aldrich Co., St Louis, Mo.).
(§5) Briefly, the distal left common carotid artery (LC) artery and its bifurcation into the external and internal carotid were exposed using blunt dissection. 9-0 nylon sutures (USSC Sutures, Norwalk, Conn.) were used to ligate the EC artery, incisions were closed (7-0 polypropylene) and mice were left to recover. Severe reduction in flow was achieved by ligating the LC artery just proximal to the external/internal carotid artery bifurcation. Five μm cross sections were used from parallel regions of RC and LC that were isolated in 5 millimeter (mm) blocks proximal to the ligation, until reaching a parallel point at the RC artery branchpoint with the right subclavian artery. […] Mice that developed thrombosis were excluded from the analysis. […] Urine was collected from individual mice using metabolic cages at four weeks of age, and again after a four week period of treatment, subsequent to either moderate or severe flow reduction. Urine samples were frozen at −20° for analysis.

Male C57BL/6J mice [8] = conditions: nimesulide
Protocol: as §4, §5

Male C57BL/6J mice [9] = conditions: one week after LC ligation, severe flow reduction
Description: as §5

[10] = Case study of short term valdecoxib use; assay type: in vivo, human; conditions: valdecoxib 20 mg b.i.d. Person on oral contraceptive
Protocol: A ventilation-perfusion scan (VQ scan) was performed according to typical hospital procedure. Inhalation of 20.1 millicurie (mCi) of Xenon-133 gas was used for the ventilation scan. Intravenous injection of 4.1 mCi of Tc-99m-labelled MAA was used for the perfusion scan.
A person presented with pulmonary embolism. They had been taking, without complication, Ortho-Tricyclen® (0.180, 0.215, and 0.250 mg norgestimate cycles; 35 microgram (μg) ethinyl estradiol) for two years and Ortho Tri-cyclen® LO (same norgestimate; 25 μg ethinyl estradiol) for 14 months. A non-smoker, they lacked a relevant family history and was vigorously athletic.
One month prior to presentation, they developed neck pain. Disc protrusion at C5-C6 was detected by magnetic resonance imaging (MRI). The patient was prescribed valdecoxib 20 mg b.i.d. for two weeks. Their neck pain resolved. However, towards the end of this two-week treatment period, they developed left-sided pleuritic chest and shoulder pain after a 6 hour car ride. They were commenced on cyclobenzaprine 10 mg b.i.d. and continued on valdecoxib. Their left-sided pain abated gradually. However, 18 days later, they developed right-sided chest and shoulder pain. […]

[11] = small, short-term studies of cardiopulmonary bypass grafting; cited from earlier work
[12] = nimesulide, severe flow reduction

## CC1(C)OC(=O)C(c2cccc(F)c2)=C1c1ccc(S(C)(=O)=O)cc1 [DFU, 5,5-dimethyl-3-(3-fluorophenyl)-4-(4-methylsulphonyl)phenyl-2(5H)-furanone]
Eicosanoid biosynthesis; DFU, WT mice
  mean depression of urinary 2,3-dinor 6-keto PGF1α from pretreatment values: 71.2%
  mean depression of urinary PGE-M from pretreatment values: 52.3%
  urinary 2,3-dinor TxB2 vs pretreatment values: did not depress
Eicosanoid biosynthesis; DFU, WT mice, second value of the printed pair (4.63±1.3 vs.), order not stated
  urinary 2,3-dinor TxB2: 6.0±1.1 ng/mg creatinine
Eicosanoid biosynthesis; PGHS-2 inhibition, mice
  urinary 2,3-dinor 6-keto PGF1α: suppressed substantially
Eicosanoid biosynthesis; treatment with PGHS-2 selective inhibitor, mice
  urinary 2,3-dinor TxB2: unaltered significantly
Mice [1]
  mean impact on time to occlusion, % of WT value: 56.2%

## Cc1ccc(-c2cc(C(F)(F)F)nn2-c2ccc(S(N)(=O)=O)cc2)cc1 [celecoxib]
Mice [2]
  blood pressure compared to WT controls: elevated

## CCC#CC[C@H](C)[C@H](O)C#C[C@@H]1[C@H]2C/C(=C/COCC(=O)O)C[C@H]2C[C@H]1O [cicaprost]
[3]; cicaprost 100 nM, H2O2 100 μM 30 min
  response of MASMCs to H2O2, iP generation: limits the response
[3]; cicaprost, MASMC without H2O2
  iP generation from unstimulated cells: does not significantly reduce
Heme oxygenase 1 (HO 1)
  HO 1 protein expression: increased expression
IP [4]; IP+/−
  duration of the depressor response: 5.3 ± 1.1 min
  maximal decline in mean arterial pressure from pretreatment baseline: 24%
IP [4]; WT
  maximal decline in mean arterial pressure from pretreatment baseline: 36±3.5%
IP [4]; WTs
  duration of the depressor response: 10.8 ± 2.5 min
IP [5]
  depressor response, MAP: no change in MAP
  maximal decline in mean arterial pressure from pretreatment baseline: 0%
IP [6]
  platelet aggregation readout, second value printed for IP+/− mice: 100%
IP [6]; IP+/− mice
  inhibition of platelet aggregation, % of the maximal inhibition observed in WTs: 86.7%

## CS(=O)(=O)Nc1ccc([N+](=O)[O-])cc1Oc1ccccc1 [nimesulide]
Male C57BL/6J mice [7]; nimesulide 40 mg/L in drinking water, chronic, control mice
  urinary PGI-M: depressed urinary PGI-M
Male C57BL/6J mice [7]; nimesulide, control conditions
  urinary 2,3-dinor TxB2 excretion: failed to suppress
Male C57BL/6J mice [7]; nimesulide, control mice
  excretion of an isoprostane biomarker of lipid peroxidation: did not alter excretion
Male C57BL/6J mice [7]; nimesulide, moderate and severe reduction in flow
  urinary PGI-M: depressed PGI-M to a similar degree
Male C57BL/6J mice [7]; [12]
  oxidant stress, urinary 8,12-iso-iPF2α-VI: markedly augmented
  platelet activation, urinary 2,3-dinor TxB2 excretion: markedly augmented
Male C57BL/6J mice [8]; control mice
  lumen diameter and external elastic lamina diameter of RCs or LCs: did not itself affect
Male C57BL/6J mice [8]; moderate or severe flow reduction
  flow dependent reduction in vessel size (luminal and EEL diameter): failed to alter
Male C57BL/6J mice [8]; severe flow reduction
  neointimal area, intimal hyperplastic response in LC: markedly augmented the intimal hyperplastic response
Male C57BL/6J mice [9]
  blood flow in the LC, nimesulide vs vehicle: marked reduction

## Cc1onc(-c2ccccc2)c1-c1ccc(S(N)(=O)=O)cc1 [valdecoxib]
[10]
  adverse event diagnosed in the patient: left iliac vein thrombosis and bilateral pulmonary emboli
[11]
  relative risk of heart attack and stroke: three-fold increase
